Laboratory results taken from ChEMBL document CHEMBL4602730, “In Vitro and in Vivo Evaluation of Membrane-Active Flavone Amphiphiles: Semisynthetic Kaempferol-Derived Antimicrobials against Drug-Resistant Gram-Positive Bacteria” (J Med Chem, 2020).
Converted amounts (≈) assume the structure as drawn.

test system: Staphylococcus aureus; test: Antibacterial activity against methicillin-resistant Staphylococcus aureus NCTC 10442 assessed as inhibition of bacterial growth incubated for 24 hrs by broth microdilution method; format: functional; conditions: NCTC 10442, 24 h

Row | SMILES | MIC
1 | CC(C)=CCOc1ccc(-c2oc3cc(OCC=C(C)C)cc(O)c3c(=O)c2O)cc1 | > 118 µM
2 | COC(=O)[C@H](CCCNC(=N)N)NC(=O)[C@H](CCCNC(=N)N)NC(=O)COc1c(-c2ccc(OCC=C(C)C)cc2)oc2cc(OCC=C(C)C)cc(O)c2c1=O | 3.9 µM (≈ 3.15 µg/mL)
3 | CCCCCCCCCOc1ccc(-c2oc3cc(OCCCCCCCCC)cc(O)c3c(=O)c2OCCCN(CC)CC)cc1 | > 76.7 µM
4 | CCCNCCCOc1c(-c2ccc(OCC=C(C)C)cc2)oc2cc(OCC=C(C)C)cc(O)c2c1=O | 12 µM (≈ 6.26 µg/mL)
5 | CC(C)=CCOc1ccc(-c2oc3cc(OCC=C(C)C)cc(O)c3c(=O)c2OCCC[N+](C)(C)C)cc1 | 4.8 µM
6 | CCCCCOc1ccc(-c2oc3cc(OCCCCC)cc(O)c3c(=O)c2OCCCN(CC)CC)cc1 | 23.2 µM (≈ 12.5 µg/mL)
7 | CCN(CC)CCCOc1c(-c2ccc(OCC=C(C)C)cc2)oc2cc(OCC=C(C)C)cc(O)c2c1=O | 5.8 µM (≈ 3.11 µg/mL)
8 | CCN(CC)CCCNC(=O)COc1c(-c2ccc(OCC=C(C)C)cc2)oc2cc(OCC=C(C)C)cc(OCC(=O)NCCCN(CC)CC)c2c1=O | > 65.5 µM
9 | CC(C)=CCOc1ccc(-c2oc3cc(OCC=C(C)C)cc(O)c3c(=O)c2OCC(=O)N[C@@H](CCCNC(=N)N)C(=O)NCCCN(C)C)cc1 | 8.7 µM (≈ 6.27 µg/mL)
10 | CCN(CC)CCCCOc1c(-c2ccc(OCC=C(C)C)cc2)oc2cc(OCC=C(C)C)cc(O)c2c1=O | 5.7 µM (≈ 3.13 µg/mL)

test system: Staphylococcus aureus; test: Antibacterial activity against methicillin-resistant Staphylococcus aureus N315 assessed as inhibition of bacterial growth incubated for 24 hrs by broth microdilution method; format: functional; conditions: N315, 24 h

Row | SMILES | MIC
11 | CC(C)=CCOc1ccc(-c2oc3cc(OCC=C(C)C)cc(O)c3c(=O)c2O)cc1 | > 118 µM
12 | COC(=O)[C@H](CCCNC(=N)N)NC(=O)[C@H](CCCNC(=N)N)NC(=O)COc1c(-c2ccc(OCC=C(C)C)cc2)oc2cc(OCC=C(C)C)cc(O)c2c1=O | 3.9 µM (≈ 3.15 µg/mL)
13 | CCCCCCCCCOc1ccc(-c2oc3cc(OCCCCCCCCC)cc(O)c3c(=O)c2OCCCN(CC)CC)cc1 | > 76.7 µM
14 | CCCNCCCOc1c(-c2ccc(OCC=C(C)C)cc2)oc2cc(OCC=C(C)C)cc(O)c2c1=O | 6 µM (≈ 3.13 µg/mL)
15 | CC(C)=CCOc1ccc(-c2oc3cc(OCC=C(C)C)cc(O)c3c(=O)c2OCCC[N+](C)(C)C)cc1 | 2.4 µM
16 | CCCCCOc1ccc(-c2oc3cc(OCCCCC)cc(O)c3c(=O)c2OCCCN(CC)CC)cc1 | 11.6 µM (≈ 6.26 µg/mL)
17 | CCN(CC)CCCOc1c(-c2ccc(OCC=C(C)C)cc2)oc2cc(OCC=C(C)C)cc(O)c2c1=O | 5.8 µM (≈ 3.11 µg/mL)
18 | CCN(CC)CCCNC(=O)COc1c(-c2ccc(OCC=C(C)C)cc2)oc2cc(OCC=C(C)C)cc(OCC(=O)NCCCN(CC)CC)c2c1=O | > 65.5 µM
19 | CC(C)=CCOc1ccc(-c2oc3cc(OCC=C(C)C)cc(O)c3c(=O)c2OCC(=O)N[C@@H](CCCNC(=N)N)C(=O)NCCCN(C)C)cc1 | 8.7 µM (≈ 6.27 µg/mL)
20 | CCN(CC)CCCCOc1c(-c2ccc(OCC=C(C)C)cc2)oc2cc(OCC=C(C)C)cc(O)c2c1=O | 5.7 µM (≈ 3.13 µg/mL)

test system: Staphylococcus aureus; test: Antibacterial activity against Staphylococcus aureus ATCC 29213 assessed as inhibition of bacterial growth incubated for 24 hrs by broth microdilution method; format: functional; conditions: ATCC 29213, 24 h

Row | SMILES | MIC
21 | CC(C)=CCOc1ccc(-c2oc3cc(OCC=C(C)C)cc(O)c3c(=O)c2O)cc1 | > 118 µM
22 | COC(=O)[C@H](CCCNC(=N)N)NC(=O)[C@H](CCCNC(=N)N)NC(=O)COc1c(-c2ccc(OCC=C(C)C)cc2)oc2cc(OCC=C(C)C)cc(O)c2c1=O | 3.9 µM (≈ 3.15 µg/mL)
23 | CCCCCCCCCOc1ccc(-c2oc3cc(OCCCCCCCCC)cc(O)c3c(=O)c2OCCCN(CC)CC)cc1 | > 76.7 µM
24 | CCCNCCCOc1c(-c2ccc(OCC=C(C)C)cc2)oc2cc(OCC=C(C)C)cc(O)c2c1=O | 24 µM (≈ 12.5 µg/mL)
25 | CC(C)=CCOc1ccc(-c2oc3cc(OCC=C(C)C)cc(O)c3c(=O)c2OCCC[N+](C)(C)C)cc1 | 4.8 µM
26 | CCCCCOc1ccc(-c2oc3cc(OCCCCC)cc(O)c3c(=O)c2OCCCN(CC)CC)cc1 | 11.6 µM (≈ 6.26 µg/mL)
27 | CCN(CC)CCCOc1c(-c2ccc(OCC=C(C)C)cc2)oc2cc(OCC=C(C)C)cc(O)c2c1=O | 5.8 µM (≈ 3.11 µg/mL)
28 | CCN(CC)CCCNC(=O)COc1c(-c2ccc(OCC=C(C)C)cc2)oc2cc(OCC=C(C)C)cc(OCC(=O)NCCCN(CC)CC)c2c1=O | > 65.5 µM
29 | CC(C)=CCOc1ccc(-c2oc3cc(OCC=C(C)C)cc(O)c3c(=O)c2OCC(=O)N[C@@H](CCCNC(=N)N)C(=O)NCCCN(C)C)cc1 | 8.7 µM (≈ 6.27 µg/mL)
30 | CCN(CC)CCCCOc1c(-c2ccc(OCC=C(C)C)cc2)oc2cc(OCC=C(C)C)cc(O)c2c1=O | 5.7 µM (≈ 3.13 µg/mL)

test system: not listed separately; test: Induction of hemolysis in rabbit RBC incubated for 1 hr; format: cell-based, Oryctolagus cuniculus, Erythrocyte; conditions: rabbit red blood cells (erythrocytes)

Row | SMILES | HC50 at 1 h
31 | CC(C)=CCOc1ccc(-c2oc3cc(OCC=C(C)C)cc(O)c3c(=O)c2O)cc1 | > 473 µM
32 | COC(=O)[C@H](CCCNC(=N)N)NC(=O)[C@H](CCCNC(=N)N)NC(=O)COc1c(-c2ccc(OCC=C(C)C)cc2)oc2cc(OCC=C(C)C)cc(O)c2c1=O | 82.5 µM
33 | CCCCCCCCCOc1ccc(-c2oc3cc(OCCCCCCCCC)cc(O)c3c(=O)c2OCCCN(CC)CC)cc1 | > 307 µM
34 | CCCNCCCOc1c(-c2ccc(OCC=C(C)C)cc2)oc2cc(OCC=C(C)C)cc(O)c2c1=O | 49.8 µM
35 | CC(C)=CCOc1ccc(-c2oc3cc(OCC=C(C)C)cc(O)c3c(=O)c2OCCC[N+](C)(C)C)cc1 | 77.3 µM
36 | CCCCCOc1ccc(-c2oc3cc(OCCCCC)cc(O)c3c(=O)c2OCCCN(CC)CC)cc1 | 284 µM
37 | CCN(CC)CCCOc1c(-c2ccc(OCC=C(C)C)cc2)oc2cc(OCC=C(C)C)cc(O)c2c1=O | 59.9 µM
38 | CCN(CC)CCCNC(=O)COc1c(-c2ccc(OCC=C(C)C)cc2)oc2cc(OCC=C(C)C)cc(OCC(=O)NCCCN(CC)CC)c2c1=O | > 262 µM
39 | CC(C)=CCOc1ccc(-c2oc3cc(OCC=C(C)C)cc(O)c3c(=O)c2OCC(=O)N[C@@H](CCCNC(=N)N)C(=O)NCCCN(C)C)cc1 | 131 µM
40 | CCN(CC)CCCCOc1c(-c2ccc(OCC=C(C)C)cc2)oc2cc(OCC=C(C)C)cc(O)c2c1=O | 32.2 µM
